Results reported in US11957687B2 (REGENERON PHARMACEUTICALS, INC., priority 2019, dated 2024).
Where two headings read alike, the source gives them in different places.

Tests used:
[1] = Microsome stability assay, human liver microsomes; type: in vitro ADME; details: 1 μM compound, 0.5 mg/mL microsomal protein; for microsomal CLint at 1 h, 1 µM / half-life at 1 h, 1 µM / microsomal CLint at 1 μM / half-life at 1 μM: human, human liver microsomes, pooled, NADPH, 37° C.; for microsomal CLint at 1 h, 1 µM / microsomal CLint at 1 μM: read-out: Microsome Stability Human liver microsomes Cl; for half-life at 1 h, 1 µM / half-life at 1 μM: read-out: Microsome Stability Human liver microsomes T½
Experimental: (§1) Compounds of the disclosure were screened in microsome stability assays. For the screen, test compounds were incubated at 37° C. with either human liver microsomes (Corning; #452117) or mouse liver microsomes (XenoTech; #M1000), pooled from multiple donors, at 1 μM in the presence of a NADPH regenerating system at 0.5 mg/mL microsomal protein. Positive controls included in the assay were testosterone (3A4 substrate), propafenone (2D6) and diclofenac (2C9). Samples were removed at different time points (0, 5, 10, 20, 30 and 60 minutes) and immediately mixed with cold acetonitrile containing internal standard (IS, 200 ng/mL tolbutamide and 200 ng/mL labetalol). Test compounds incubated with microsomes for 60 minutes without the NADPH regenerating system was also included. A single point for each test condition (n=1) was obtained, and samples were analyzed by LC/MS/MS. Disappearance of the test compound was assessed based on peak area ratios of analyte/IS (no standard curve).

HSD17B13 = HSD17B13 (Homo sapiens (Human), UniProt Q7Z5P4); experiment: HSD17B13 enzymatic inhibition assay (150 nM or 50 nM HSD17B13); type: biochemical
Chain of HSD17B13 (Q7Z5P4 other isoform, or with tags, fused parts or gaps): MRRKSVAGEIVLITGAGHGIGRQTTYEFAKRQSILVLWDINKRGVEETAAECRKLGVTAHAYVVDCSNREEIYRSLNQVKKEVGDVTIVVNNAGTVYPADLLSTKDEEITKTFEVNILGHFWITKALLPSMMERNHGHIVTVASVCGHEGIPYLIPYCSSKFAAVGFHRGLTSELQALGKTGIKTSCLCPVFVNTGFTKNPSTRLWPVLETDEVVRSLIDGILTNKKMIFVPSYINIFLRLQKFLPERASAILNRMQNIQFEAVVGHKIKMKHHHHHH

[2] = Microsome stability assay, mouse liver microsomes; type: in vitro ADME; details: 1 μM compound, 0.5 mg/mL microsomal protein
Experimental: as §1

[3] = 50 nM HSD17B13, read-out: Inhibition of 50 nM of HSD17B13 IC50
[4] = mouse, mouse liver microsomes, pooled, NADPH, 37° C., read-out: Microsome Stability Mouse liver microsomes Cl
[5] = mouse, mouse liver microsomes, pooled, NADPH, 37° C., read-out: Microsome Stability Mouse liver microsomes T½
[6] = 150 nM HSD17B13, read-out: Inhibition of 150 nM of HSD17B13 IC50

| Compound | Microsome Stability Human liver microsomes % Remaining @60 min [1] [%] | microsomal CLint at 1 h, 1 µM [1] [µL/min/mg] | half-life at 1 h, 1 µM [1] [min] | IC50 (HSD17B13; [3]) [nM] | Microsome Stability Mouse liver microsomes % Remaining @60 min [2] [%] | microsomal CLint at 1 h, 1 µM [2, 4] [µL/min/mg] | half-life at 1 h, 1 µM [2, 5] [min] | IC50 (HSD17B13; [6]) [nM] | microsomal CLint at 1 μM [1] [µL/min/mg] | half-life at 1 μM [1] [min] | microsomal CLint at 1 μM [2, 4] [µL/min/mg] | half-life at 1 μM [2, 5] [min] |
| --- | --- | --- | --- | --- | --- | --- | --- | --- | --- | --- | --- | --- |
| O=C(NC(c1ccccc1)c1ccccc1)c1ccc(C(F)(F)F)[nH]c1=O [Compound 1, N-benzhydryl-2-oxo-6-(trifluoromethyl)-1,2-dihydropyridine-3-carboxamide] | 66.90 | 13.4 | 103 | 1750 | 29.00 | 42.4 | 32.7 |  |  |  |  |  |
| Cc1ccc(C(NC(=O)c2ccc(C(F)(F)F)[nH]c2=O)c2ccccc2)cc1C (centres unmarked) [Compound 2A, N-((3,4-dimethylphenyl)(phenyl)methyl)-2-oxo-6-(trifluoromethyl)-1,2-dihydropyridine-3-carboxamide] | 0.10 | 515 | 2.7 | 280 |  |  |  | 1570 |  |  |  |  |
| O=C(NC(c1ccccc1)c1ccc2c(c1)OCO2)c1ccc(C(F)(F)F)[nH]c1=O (centres unmarked) [Compound 3, N-(benzo[d][1,3]dioxol-5-yl(phenyl)methyl)-2-oxo-6-(trifluoromethyl)-1,2-dihydropyridine-3-carboxamide] | 1.00 | 217 | 6.39 |  |  |  |  | 1310 |  |  |  |  |
| O=C(NC(c1ccccc1)c1cccc(C(F)(F)F)c1)c1ccc(C(F)(F)F)[nH]c1=O (centres unmarked) [Compound 7, 2-oxo-N-(phenyl(3-(trifluoromethyl)phenyl)methyl)-6-(trifluoromethyl)-1,2-dihydropyridine-3-carboxamide] | 101.00 |  |  | 3090 |  |  |  |  | < 9.6 | > 145 |  |  |
| CS(=O)(=O)Nc1ccc(C(NC(=O)c2ccc(C(F)(F)F)[nH]c2=O)c2ccccc2)cc1 (centres unmarked) [Compound 7A, N-((4-(methylsulfonamido)phenyl)(phenyl)methyl)-2-oxo-6-(trifluoromethyl)-1,2-dihydropyridine-3-carboxamide] | 93.90 |  |  | 1100 |  |  |  |  | < 9.6 | > 145 |  |  |
| CC(C)Cc1ccc(C(NC(=O)c2ccc(C(F)(F)F)[nH]c2=O)c2ccccc2)cc1 (centres unmarked) [Compound 13, N-((4-isobutylphenyl)(phenyl)methyl)-2-oxo-6-(trifluoromethyl)-1,2-dihydropyridine-3-carboxamide] | 1.44 | 138 | 10.1 | 940 |  |  |  |  |  |  |  |  |
| O=C(NC(c1ccccc1)c1ccc(Oc2ccccc2)cc1)c1ccc(C(F)(F)F)[nH]c1=O (centres unmarked) [Compound 16, N-((4-phenoxyphenyl)(phenyl)methyl)-2-oxo-6-(trifluoromethyl)-1,2-dihydropyridine-3-carboxamide] | 23.30 |  |  | 970 |  |  |  |  | 45.2 | 30.7 |  |  |
| O=C(NC(c1ccccc1)c1cccc(O)c1)c1ccc(C(F)(F)F)[nH]c1=O (centres unmarked) [Compound 18, N-((3-hydroxyphenyl)(phenyl)methyl)-2-oxo-6-(trifluoromethyl)-1,2-dihydropyridine-3-carboxamide] | 36.60 | 33 | 42 | 2480 |  |  |  |  |  |  |  |  |
| O=C(NC(c1ccccc1)c1ccccc1O)c1ccc(C(F)(F)F)[nH]c1=O (centres unmarked) [Compound 35, N-((2-hydroxyphenyl)(phenyl)methyl)-2-oxo-6-(trifluoromethyl)-1,2-dihydropyridine-3-carboxamide] | 14.90 | 63.4 | 21.9 |  |  |  |  | 2780 |  |  |  |  |
| CCCc1ccc(C(NC(=O)c2ccc(C(F)(F)F)[nH]c2=O)c2ccccc2)cc1 (centres unmarked) [Compound 36, 2-oxo-N-(phenyl(4-propylphenyl)methyl)-6-(trifluoromethyl)-1,2-dihydropyridine-3-carboxamide] | 2.00 | 126 | 11 | 680 |  |  |  |  |  |  |  |  |
| CC(C)c1ccc(C(NC(=O)c2ccc(C(F)(F)F)[nH]c2=O)c2ccccc2)cc1 (centres unmarked) [Compound 37, N-((4-isopropylphenyl)(phenyl)methyl)-2-oxo-6-(trifluoromethyl)-1,2-dihydropyridine-3-carboxamide] | 5.70 | 92.4 | 15 | 780 |  |  |  |  |  |  |  |  |
| Cc1ccc(C(=O)NC(c2ccccc2)c2ccccc2O)c(=O)[nH]1 (centres unmarked) [Compound 65, N-((2-hydroxyphenyl)(phenyl)methyl)-6-methyl-2-oxo-1,2-dihydropyridine-3-carboxamide] | 50.10 | 118 |  |  |  |  |  | > 30000 |  | 11.8 |  |  |
| COc1ccc2c(c1)CCC2NC(=O)c1ccc(C(F)(F)F)[nH]c1=O (centres unmarked) [Compound 134, N-(5-methoxy-2,3-dihydro-1H-inden-1-yl)-2-oxo-6-(trifluoromethyl)-1,2-dihydropyridine-3-carboxamide] | 0.27 | 410 | 3.38 | 1410 |  |  |  |  |  |  |  |  |

Second part, the compound after the results:

| Microsome Stability Human liver microsomes % Remaining @60 min [1] [%] | microsomal CLint at 1 h, 1 µM [1] [µL/min/mg] | half-life at 1 h, 1 µM [1] [min] | IC50 (HSD17B13; [3]) [nM] | Microsome Stability Mouse liver microsomes % Remaining @60 min [2] [%] | microsomal CLint at 1 h, 1 µM [2, 4] [µL/min/mg] | half-life at 1 h, 1 µM [2, 5] [min] | IC50 (HSD17B13; [6]) [nM] | microsomal CLint at 1 μM [1] [µL/min/mg] | half-life at 1 μM [1] [min] | microsomal CLint at 1 μM [2, 4] [µL/min/mg] | half-life at 1 μM [2, 5] [min] | Compound |
| --- | --- | --- | --- | --- | --- | --- | --- | --- | --- | --- | --- | --- |
| 1.00 | 414 | 3.35 | 2200 |  |  |  |  |  |  |  |  | Cc1ccc(CNC(=O)c2ccc(C(F)(F)F)[nH]c2=O)cc1 [Compound 215, N-(4-methylbenzyl)-2-oxo-6-(trifluoromethyl)-1,2-dihydropyridine-3-carboxamide] |
| 1 | 369 | 3.76 | 410 | 1 | 303 | 4.56 |  |  |  |  |  | COc1ccc2c(c1)CCCC2NC(=O)c1ccc(C(F)(F)F)[nH]c1=O (centres unmarked) [Compound 234, N-(6-methoxy-1,2,3,4-tetrahydronaphthalen-1-yl)-2-oxo-6-(trifluoromethyl)-1,2-dihydropyridine-3-carboxamide] |
| 1 | 547 | 2.53 | 200 | 50 | 23.6 | 58.7 |  |  |  |  |  | Cc1ccc2c(c1)CCCC2NC(=O)c1ccc(C(F)(F)F)[nH]c1=O (centres unmarked) [Compound 235, N-(6-methyl-1,2,3,4-tetrahydronaphthalen-1-yl)-2-oxo-6-(trifluoromethyl)-1,2-dihydropyridine-3-carboxamide] |
| 66.40 | 13.2 | 105 | 340 | 39 | 31 | 44.7 |  |  |  |  |  | COc1ccc2c(c1)Oc1cc(OC)ccc1C2NC(=O)c1ccc(C(F)F)[nH]c1=O [Compound 273, 6-(difluoromethyl)-N-(3,6-dimethoxy-9H-xanthen-9-yl)-2-oxo-1,2-dihydropyridine-3-carboxamide] |
| 70.70 | 9.82 | 141 | 340 | 76.40 |  |  |  |  |  | < 9.6 | > 145 | CCC1CCc2cc(O)ccc2C1NC(=O)c1ccc(C(F)(F)F)[nH]c1=O (centres unmarked) [Compound 284, N-(2-ethyl-6-hydroxy-1,2,3,4-tetrahydronaphthalen-1-yl)-2-oxo-6-(trifluoromethyl)-1,2-dihydropyridine-3-carboxamide] |
| 1.49 | 137 | 10.1 | 30 | 11.20 | 70.7 | 19.6 |  |  |  |  |  | CCCC1CCc2cc(C)ccc2C1NC(=O)c1ccc(C(F)(F)F)[nH]c1=O (centres unmarked) [Compound 285, N-(6-methyl-2-propyl-1,2,3,4-tetrahydronaphthalen-1-yl)-2-oxo-6-(trifluoromethyl)-1,2-dihydropyridine-3-carboxamide] |
| 17.90 | 54.5 | 25.5 |  | 52.20 | 21.3 | 65 |  |  |  |  |  | CCCC1Cc2ccc(C)cc2C1NC(=O)c1ccc(C(F)(F)F)[nH]c1=O (centres unmarked) [Compound 291, N-(6-methyl-2-propyl-2,3-dihydro-1H-inden-1-yl)-2-oxo-6-(trifluoromethyl)-1,2-dihydropyridine-3-carboxamide] |
